# Results: ChEMBL document CHEMBL1201862, “PubChem BioAssay data set” (2004)
# Activity calls are given as the source filed them. Cut-off read from the data, not from the text of the source, for most assays here: actives have a measured EC50 and inactives only a lower limit.
# Legend:
# [1] = biological target: T1, Calpain-2 catalytic subunit (Sus scrofa, UniProt P43367); assay: pig calpain II inhibitor potency, dose response, biochemical, fluorogenic peptide substrate (AID 1420); type: functional
# T1 sequence (P43367 whole entry): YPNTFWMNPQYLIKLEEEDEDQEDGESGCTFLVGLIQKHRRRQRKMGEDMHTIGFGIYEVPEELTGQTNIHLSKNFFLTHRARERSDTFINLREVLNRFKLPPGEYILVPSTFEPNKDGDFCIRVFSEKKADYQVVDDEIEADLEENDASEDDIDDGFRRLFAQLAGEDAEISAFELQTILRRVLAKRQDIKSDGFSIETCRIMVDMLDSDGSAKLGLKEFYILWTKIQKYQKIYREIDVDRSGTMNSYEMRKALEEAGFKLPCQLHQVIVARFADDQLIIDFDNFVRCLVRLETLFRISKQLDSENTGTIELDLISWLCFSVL
# [2] = inhibitors of firefly luciferase expression or activity, dose response, H4 neuroglioma cells, luminescence (AID 1990); type: functional, cell-based
# [3] = Luminescence Cell-Based Dose Response HTS to Identify Inhibitors of 5'UTR Stem-Loop Driven Prion Protein mRNA Translation in H4 Neuroglioblastoma Cells. [Related pubchem assays: 1827 (Project Summary), 1813 (Primary HTS)]; type: functional
# [4] = inhibitors of SNCA 5'UTR-driven reporter translation, confirmation, H4 neuroglioma cells, luminescence (AID 1988); type: functional, cell-based
# cells = type: functional
# [5] = biological target: T2, Rac GTPase-activating protein 1 (Homo sapiens, UniProt Q9H0H5); assay: MgcRacGAP GTPase-activating activity inhibitors, confirmation, biochemical, ADP Hunter fluorescence, primary and confirmatory (AID 624330); type: functional
# T2 sequence (Q9H0H5 whole entry): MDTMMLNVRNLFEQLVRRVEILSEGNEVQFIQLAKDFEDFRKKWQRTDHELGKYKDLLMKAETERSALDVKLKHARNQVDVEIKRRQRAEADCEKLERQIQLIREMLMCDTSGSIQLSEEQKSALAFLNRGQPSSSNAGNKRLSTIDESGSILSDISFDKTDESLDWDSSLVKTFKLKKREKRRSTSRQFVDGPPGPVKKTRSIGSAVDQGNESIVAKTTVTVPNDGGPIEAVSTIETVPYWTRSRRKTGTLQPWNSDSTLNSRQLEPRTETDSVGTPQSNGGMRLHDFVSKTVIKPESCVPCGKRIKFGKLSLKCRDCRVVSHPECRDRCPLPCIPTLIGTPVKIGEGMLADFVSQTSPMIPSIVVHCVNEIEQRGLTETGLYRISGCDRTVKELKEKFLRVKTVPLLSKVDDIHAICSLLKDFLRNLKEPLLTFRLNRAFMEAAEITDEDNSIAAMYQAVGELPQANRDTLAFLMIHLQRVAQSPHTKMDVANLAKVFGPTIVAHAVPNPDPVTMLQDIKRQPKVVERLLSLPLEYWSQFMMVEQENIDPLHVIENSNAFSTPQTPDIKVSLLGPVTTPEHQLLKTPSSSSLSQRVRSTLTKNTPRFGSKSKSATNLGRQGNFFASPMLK
# Protein RecA = biological target: T3, Protein RecA (Mycobacterium tuberculosis, UniProt P9WHJ3); assay: Fluorescence Cell-Free Homogeneous Dose Retest to Identify Inhibitors of RecA-Intein Splicing Activity. [Related pubchem assays (depositor defined):AID2097, AID2223, AID489010, AID492950]; type: functional
# T3 sequence (P9WHJ3 whole entry): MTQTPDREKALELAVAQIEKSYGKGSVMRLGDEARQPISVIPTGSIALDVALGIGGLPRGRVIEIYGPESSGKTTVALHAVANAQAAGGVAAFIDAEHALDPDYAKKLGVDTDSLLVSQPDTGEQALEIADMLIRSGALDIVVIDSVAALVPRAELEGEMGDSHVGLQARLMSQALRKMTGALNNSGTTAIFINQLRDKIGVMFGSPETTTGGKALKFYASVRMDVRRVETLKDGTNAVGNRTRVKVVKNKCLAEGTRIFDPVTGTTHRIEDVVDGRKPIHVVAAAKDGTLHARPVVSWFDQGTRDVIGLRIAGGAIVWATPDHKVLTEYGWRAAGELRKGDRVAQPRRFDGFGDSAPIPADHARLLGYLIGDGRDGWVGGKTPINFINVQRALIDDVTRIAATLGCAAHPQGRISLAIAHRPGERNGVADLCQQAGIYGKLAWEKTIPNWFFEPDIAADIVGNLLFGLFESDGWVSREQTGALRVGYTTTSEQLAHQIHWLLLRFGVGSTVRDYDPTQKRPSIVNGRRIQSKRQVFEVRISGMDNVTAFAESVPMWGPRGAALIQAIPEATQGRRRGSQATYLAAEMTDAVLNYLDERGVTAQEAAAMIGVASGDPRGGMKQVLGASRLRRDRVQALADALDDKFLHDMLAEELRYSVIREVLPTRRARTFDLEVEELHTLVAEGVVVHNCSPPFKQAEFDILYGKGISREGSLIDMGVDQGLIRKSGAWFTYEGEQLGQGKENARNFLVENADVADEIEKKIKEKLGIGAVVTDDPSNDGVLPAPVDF
# H4 = assay: Luminescence Cell-Based Dose Response HTS to Identify Activators of 5'UTR Stem-Loop Driven Prion Protein mRNA Translation in H4 Neuroglioblastoma Cells. [Related pubchem assays: 1829 (Project Summary), 1814 (Primary HTS)]; type: functional; conditions: Homo sapiens
# [6] = Luminescence Cell-Based Dose Response HTS to Identify Activators of Luciferase Translation or Activity in H4 […] Cells. [Related pubchem assays: 1829 (Project Summary), 1814 (Primary HTS)]; type: functional
# [7] = biological target: T4, Replicative DNA helicase DnaB (Mycobacterium tuberculosis, UniProt P9WMR3); assay: DnaB intein splicing inhibitors, dose response, biochemical, cell-free fluorescence (AID 449749); type: functional
# T4 sequence (P9WMR3 whole entry): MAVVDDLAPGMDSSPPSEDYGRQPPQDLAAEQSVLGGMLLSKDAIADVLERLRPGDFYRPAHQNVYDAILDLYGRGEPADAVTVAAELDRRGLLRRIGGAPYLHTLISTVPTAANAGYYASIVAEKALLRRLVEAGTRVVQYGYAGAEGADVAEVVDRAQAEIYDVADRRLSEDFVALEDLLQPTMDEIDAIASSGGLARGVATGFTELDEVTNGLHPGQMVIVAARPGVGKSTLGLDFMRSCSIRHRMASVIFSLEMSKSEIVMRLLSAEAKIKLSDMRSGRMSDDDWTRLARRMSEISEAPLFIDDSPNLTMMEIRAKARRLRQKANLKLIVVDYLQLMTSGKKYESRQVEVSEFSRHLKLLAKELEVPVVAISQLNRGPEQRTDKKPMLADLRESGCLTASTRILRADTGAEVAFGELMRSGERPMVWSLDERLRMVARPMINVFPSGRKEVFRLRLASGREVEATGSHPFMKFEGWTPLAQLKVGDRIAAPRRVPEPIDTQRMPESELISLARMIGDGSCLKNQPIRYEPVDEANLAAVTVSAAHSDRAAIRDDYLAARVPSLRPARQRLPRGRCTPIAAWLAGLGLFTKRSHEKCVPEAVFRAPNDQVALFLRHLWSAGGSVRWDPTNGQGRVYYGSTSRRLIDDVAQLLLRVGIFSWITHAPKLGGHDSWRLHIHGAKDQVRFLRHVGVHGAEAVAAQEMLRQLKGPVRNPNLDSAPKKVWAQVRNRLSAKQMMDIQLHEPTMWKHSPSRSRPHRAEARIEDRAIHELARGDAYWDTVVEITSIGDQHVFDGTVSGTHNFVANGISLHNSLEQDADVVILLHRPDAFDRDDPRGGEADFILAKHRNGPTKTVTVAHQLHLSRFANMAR
# BJ [8] = assay: cells; type: functional, cell-based; conditions: Homo sapiens
# BJ [9] = assay: cytotoxicity toward BJ-TERT fibroblasts, dose response, cell-based, RAS-independent, luminescence (AID 1933); type: functional; conditions: Homo sapiens
# [10] = cytotoxicity toward DRD oncogenic fibroblasts, dose response, cell-based, non-viral oncogenic, luminescence (AID 1934); type: functional; conditions: Homo sapiens
# BJ [11] = assay: cytotoxicity toward BJ-TERT-LT-ST fibroblasts, dose response, cell-based, RAS-independent, luminescence (AID 1935); type: functional; conditions: Homo sapiens;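 note: BJ fibroblasts immortalized with TERT plus LT and ST oncogenes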
# [12] = Luminescence Cell-Based Dose Confirmation HTS to Identify Inhibitors of Platelet Dense Granule Release. [Related pubchem assays: 1663 (Primary HTS), 1678 (Summary of Project)]; type: functional
# [13] = biological target: T5, Heat shock factor protein 1 (Mus musculus, UniProt P38532); assay: inhibition of MG132-induced HSE-luciferase signal, confirmation, cell-based, NIH3T3, luminescence, dose retest (AID 2382); type: functional;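 note: NIH3T3 fibroblasts with HSF1-driven luciferase reporter stressed by proteasome inhibitor MG132; luminescence from HSF1-driven luciferase expression after 8 hours of MG132 stress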
# T5 sequence (P38532 whole entry): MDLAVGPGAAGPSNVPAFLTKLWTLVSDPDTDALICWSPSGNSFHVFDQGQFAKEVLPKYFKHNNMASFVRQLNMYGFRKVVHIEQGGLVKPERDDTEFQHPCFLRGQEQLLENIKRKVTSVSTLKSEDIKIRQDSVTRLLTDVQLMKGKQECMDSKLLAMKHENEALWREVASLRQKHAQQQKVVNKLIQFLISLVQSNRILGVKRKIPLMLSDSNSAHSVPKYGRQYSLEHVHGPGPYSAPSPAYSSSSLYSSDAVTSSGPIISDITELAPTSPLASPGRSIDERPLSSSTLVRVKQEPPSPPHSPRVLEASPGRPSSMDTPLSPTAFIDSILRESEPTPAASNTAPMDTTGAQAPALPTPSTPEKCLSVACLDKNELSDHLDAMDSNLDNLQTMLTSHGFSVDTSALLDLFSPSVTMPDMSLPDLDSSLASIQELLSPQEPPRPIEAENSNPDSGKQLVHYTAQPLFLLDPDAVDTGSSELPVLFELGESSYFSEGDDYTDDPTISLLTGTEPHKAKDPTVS
# [14] = biological target: Luciferin 4-monooxygenase (Photinus pyralis, UniProt P08659); assay: firefly luciferase enzyme inhibitors, dose response, biochemical, luminescence (AID 1891)
# Sequence of Luciferin 4-monooxygenase (P08659 whole entry): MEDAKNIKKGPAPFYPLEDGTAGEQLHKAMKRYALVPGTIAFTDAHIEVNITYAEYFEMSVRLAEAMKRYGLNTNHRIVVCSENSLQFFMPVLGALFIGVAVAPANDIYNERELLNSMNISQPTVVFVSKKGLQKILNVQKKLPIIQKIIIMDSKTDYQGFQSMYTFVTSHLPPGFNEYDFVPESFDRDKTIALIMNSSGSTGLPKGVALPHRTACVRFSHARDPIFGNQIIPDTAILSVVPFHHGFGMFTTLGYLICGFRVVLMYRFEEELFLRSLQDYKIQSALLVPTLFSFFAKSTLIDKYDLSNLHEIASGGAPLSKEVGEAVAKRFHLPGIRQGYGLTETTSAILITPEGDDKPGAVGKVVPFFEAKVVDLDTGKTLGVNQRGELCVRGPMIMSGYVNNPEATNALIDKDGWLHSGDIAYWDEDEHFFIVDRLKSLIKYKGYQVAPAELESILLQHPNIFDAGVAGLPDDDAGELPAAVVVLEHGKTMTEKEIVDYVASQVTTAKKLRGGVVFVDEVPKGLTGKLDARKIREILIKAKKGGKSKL
smiles,measurement,setting,value
CCC(C)C(=O)Nc1ccc([N+](=O)[O-])cc1OC (stereo not given),IC50,[1],16.1 µM (not active)
CCCN1CCC(=NNc2ccc(S(=O)(=O)N3CCOCC3)cc2[N+](=O)[O-])CC1,EC50,[2],11.1 µM (inconclusive)
same,EC50,[3],13.8 µM (active)
same,EC50,[4],6.57 µM (active)
Cc1ccc(SC[C@H](Cc2ccccc2)N2CCN(CCc3ccccc3)CCC2=O)cc1,IC50,[1],5.01 µM (not active)
CCOc1ccc(NC(=S)NC(=O)/C=C/c2ccc(OC)cc2)c([N+](=O)[O-])c1,IC50,[1],17.2 µM (not active)
CCOC(=O)Cn1c(C)c(Br)c(=O)c2cccc(C)c21,IC50,cells,11.2 µM (active)
Cn1nnc(NC(=O)COc2ccc(C3CCCCC3)cc2)n1,IC50,cells,23.3 µM (active)
CCOC(=O)c1ccc(NC(=O)Nc2ncccc2C)cc1,IC50,[1],12.4 µM (not active)
O=C(CCSc1ccccn1)c1ccccc1,IC50,cells,23.2 µM (active)
CCC1CCCCN1C(=O)c1ccc(OC2CCN(C(=O)C3CC3)CC2)cc1 (stereo not given),IC50,[1],> 50 µM (not active)
O=Cc1ccc(-n2nncc2-c2ccc([N+](=O)[O-])cc2)cc1,IC50,[1],12.6 µM (not active)
COc1cc(/C=C2\C(=O)N(CCC#N)N=C2C)ccc1OCC(=O)Nc1ccccc1,IC50,[5],144 µM (active)
same,EC50,Protein RecA,2.79 µM (active)
same,EC50,H4,64.8 µM (active)
same,EC50,[6],< 0.1 µM (active)
same,AC50,[7],3.74 µM (active)
CCOC(=O)c1c(NC(=O)CNC2CCCCC2)sc(C)c1C,IC50,[1],6.04 µM (not active)
CC(C)Cn1c(N)c(C(=O)COC(=O)c2ccccc2F)c(=O)n(C)c1=O,IC50,[1],> 50 µM (not active)
COc1ccc(C2CC(C(F)(F)F)n3ncc(C(=O)Nc4cccc(O)c4)c3N2)cc1OC (stereo not given),EC50,[2],20.3 µM (active)
same,EC50,[3],23.2 µM (active)
same,EC50,[4],54.7 µM (active)
O=C(Nc1cnn(Cc2ccc(F)cc2)c1)c1cc2nc(-c3ccco3)cc(C(F)(F)F)n2n1,IC50,[1],0.777 µM (not active)
O=S(=O)(c1ccc2c(c1)OCCO2)N1CCc2ccccc21,IC50,[1],> 50 µM (not active)
CCCCNc1nc(NC)nc(Cl)c1SC,EC50,[2],> 120 µM (not active)
same,EC50,[3],> 120 µM (not active)
same,EC50,[4],> 120 µM (not active)
CCOC(=O)c1c(C)nc2sc3c(=O)n(-c4ccc(OC)cc4)cnc3c2c1-c1ccc(OC)cc1,EC50,[2],12.9 µM (active)
same,EC50,[3],> 120 µM (not active)
same,EC50,[4],21.1 µM (active)
COc1cc(OC)cc(C(=O)NCCN2CCOCC2)c1,IC50,[1],48.3 µM (not active)
O=C(O)COc1cccc(/C=C2/SC(=S)N(Cc3ccccc3)C2=O)c1,EC50,BJ [8],> 150 µM (not active)
same,EC50,BJ [9],> 150 µM (not active)
same,EC50,Protein RecA,10.1 µM (active)
same,EC50,[10],> 150 µM (not active)
same,AC50,[7],9.8 µM (active)
same,EC50,BJ [11],> 150 µM (inconclusive)
CCOC(=O)CN1N=C(/C=C/c2ccc(C(C)C)cc2)CCC1=O,IC50,[1],9.2 µM (active)
COc1cc(O)oc1/C=N/c1ccc(C(=O)O)cc1,EC50,[12],2.74 µM (active)
same,EC50,BJ [8],9.97 µM (active)
same,EC50,[13],> 195 µM (not active)
same,EC50,BJ [9],13.7 µM (active)
same,EC50,[14],10.7 µM (active)
same,EC50,[10],10.7 µM (active)
same,EC50,BJ [11],> 150 µM (inconclusive)
C/C(CC(=O)Nc1ccccn1)=N\NC(=O)c1ccccc1O,EC50,[2],14 µM (active)
same,EC50,[3],10.9 µM (active)
same,EC50,[4],12.7 µM (active)
CN(C)c1ccc2nc3ccc(N(C)C)cc3[s+]c2c1 [METHYLENE BLUE ANHYDROUS],EC50,[3],11.1 µM (inconclusive)
same,EC50,[4],5.46 µM (inconclusive)
